Test results: ChEMBL document CHEMBL5143630, “α-Synuclein binding activity of the plant growth promoter asterubine” (Bioorg Med Chem Lett, 2022)
Active and inactive are the calls of the source. No cut-off for these calls is given here.

Tests used:
[1] = Cytotoxicity against preformed fibrils-treated mouse TH-positive dopaminergic neurons at 0.1 to 10 uM incubated for 7 days by immunostaining analysis; type: toxicity, cell-based; conditions: neuron, 168 h, dose 0.1-10 µM, time 7 day
[2] = molecular target: Alpha-synuclein (Homo sapiens) (UniProt P37840); test: Binding affinity to human alpha-synuclein expressed in Escherichia coli BL21(DE3) assessed as compound-protein complex formation at ratio of 1:1 incubated at compound:protein ratio of 10:1 for 3 hrs by ESI-MS spectrum analysis

Activity [2]: Active
Compound: CN(C)C(=N)NCCS(=O)(=O)O
Activity [1]: Non-Toxic
